According to patent US11753407B2, “Compounds for treating spinal muscular atrophy” (PTC Therapeutics, Inc., priority 2012, dated 2023):
Where a name gives a salt, the structure may show the parent alone.

How the values were obtained:
[1] = test system: SMN2 minigene mRNA (SMN2-A minigene) in HEK293H cells; assay: SMN2 minigene mRNA splicing RT-qPCR assay in cultured cells; format: cell-based, human; details: Homo sapiens, HEK293-H; concentration increasing full length SMN2 mRNA 1.5-fold relative to vehicle-treated cells; HEK293H cells with SMN2-A minigene, 24 hours, 7-point concentration data; read-out: EC1.5x for production of full length SMN2 mRNA
Summary of the method: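 Read-out: minigene-specific full-length (exon 7-included) SMN2 mRNA by one-step multiplex RT-qPCR, normalized to GAPDH and divided by vehicle-treated level. Stable SMN2-A minigene HEK293H cells, 24 h compound exposure, 7 concentrations in duplicate. EC1.5× = concentration raising FL mRNA 1.5-fold.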

[2] = test system: Smn protein in SMA patient fibroblast cells (GM03813); assay: Smn protein assay in cultured cells (SMN HTRF); format: cell-based, human; details: SMA patient fibroblast cells, 48 hours; for maximum fold (Fold) increase of Smn protein: 7-point concentration data, fold relative to vehicle control; for EC1.5x for Smn protein expression: 7-point concentration curve, SMN HTRF, concentration producing 1.5 times Smn protein vs DMSO vehicle control
Summary of the method: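 Read-out: HTRF 665/620 nm ratio, blank-subtracted as ΔF, then expressed as fold over DMSO vehicle. Fibroblasts from SMA patients were exposed to compounds for 48 h (7 points, 3.16-fold steps, triplicates). Values are EC1.5× and maximum fold Smn increase.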

melting point | SMILES | EC (1.5-fold increase) [1] [µM] | maximum fold (Fold) increase of Smn protein [2] | EC1.5x for Smn protein expression [2]
188 to 192 °C | COc1ccc(-c2cc(=O)n3cc(N4CCC(N(C)C)CC4)ccc3c2)cc1F (as salt: acetate) [Compound 203, 7-[4-(dimethylamino)piperidin-1-yl]-2-(3-fluoro-4-methoxyphenyl)-4H-quinolizin-4-one] | – | – | –
290 °C (dec.) | O=c1cc(-c2cc(F)c(O)c(F)c2)nc2ccc(N3CCNCC3)cn12 (as salt: hydrochloride) [Compound 71, 2-(3,5-difluoro-4-hydroxyphenyl)-7-(piperazin-1-yl)-4H-pyrido[1,2-a]pyrimidin-4-one] | – | – | –
– | CCc1nc(C)cn2nc(-c3cc(=O)n4cc(NCCN5CCOCC5)ccc4n3)cc12 [Compound 823, 2-(4-ethyl-6-methylpyrazolo[1,5-a]pyrazin-2-yl)-7-{[2-(morpholin-4-yl)ethyl]amino}-4H-pyrido[1,2-a]pyrimidin-4-one] | 3 to 30 | ** (a fold increase between >1.2 and ≤1.35 is indicated by two stars (**)) | –
– | CCc1nc(C)cn2nc(-c3cc(=O)n4cc(NCCN(C)C)ccc4n3)cc12 [Compound 824, 7-{[2-(dimethylamino)ethyl]amino}-2-(4-ethyl-6-methylpyrazolo[1,5-a]pyrazin-2-yl)-4H-pyrido[1,2-a]pyrimidin-4-one] | 0.3 to 1 | **** (a fold increase between >1.5 and ≤1.65 is indicated by four stars (****)) | * (An EC1.5× for Smn protein expression between >3 μM and ≤10 μM is indicated by one star (*))
– | CCc1nc(C)cn2nc(-c3cc(=O)n4cc(N(C)CCN(C)C)ccc4n3)cc12 [Compound 825, 7-{[2-(dimethylamino)ethyl](methyl)amino}-2-(4-ethyl-6-methylpyrazolo[1,5-a]pyrazin-2-yl)-4H-pyrido[1,2-a]pyrimidin-4-one] | 0.3 to 1 | ***** (a fold increase >1.65 is indicated by five stars (*****)) | ** (an EC1.5× between >1 μM and ≤3 μM is indicated by two stars (**))
– | CCc1nc(C)cn2nc(-c3cc(=O)n4cc(N(C)CCNC)ccc4n3)cc12 [Compound 826, 2-(4-ethyl-6-methylpyrazolo[1,5-a]pyrazin-2-yl)-7-{methyl[2-(methylamino)ethyl]amino}-4H-pyrido[1,2-a]pyrimidin-4-one] | 0.1 to 0.3 | ***** (a fold increase >1.65 is indicated by five stars (*****)) | ** (an EC1.5× between >1 μM and ≤3 μM is indicated by two stars (**))
– | Cc1cn2cc(-c3cc(=O)n4cc(N5CC[C@@H](N(C)C)C5)ccc4n3)cc(C)c2n1 [Compound 827, 7-[(3R)-3-(dimethylamino)pyrrolidin-1-yl]-2-(2,8-dimethylimidazo[1,2-a]pyridin-6-yl)-4H-pyrido[1,2-a]pyrimidin-4-one] | < 0.1 | ***** (a fold increase >1.65 is indicated by five stars (*****)) | *** (an EC1.5× between >0.3 μM and ≤1 μM is indicated by three stars (***))
– | Cc1cn2cc(-c3cc(=O)n4cc(N5CC[C@H](N(C)C)C5)ccc4n3)cc(C)c2n1 [Compound 828, 7-[(3S)-3-(dimethylamino)pyrrolidin-1-yl]-2-(2,8-dimethylimidazo[1,2-a]pyridin-6-yl)-4H-pyrido[1,2-a]pyrimidin-4-one] | < 0.1 | ***** (a fold increase >1.65 is indicated by five stars (*****)) | **** (an EC1.5x≤0.3 μM is indicated by four stars (****))
– | CCc1nc(C)cn2nc(-c3cc(=O)n4cc(OCCN(C)C)cc(C)c4n3)cc12 [Compound 829, 7-[2-(dimethylamino)ethoxy]-2-(4-ethyl-6-methylpyrazolo[1,5-a]pyrazin-2-yl)-9-methyl-4H-pyrido[1,2-a]pyrimidin-4-one] | 0.1 to 0.3 | ***** (a fold increase >1.65 is indicated by five stars (*****)) | ** (an EC1.5× between >1 μM and ≤3 μM is indicated by two stars (**))
– | CCc1nc(C)cn2nc(-c3cc(=O)n4cc(OCCN(C)C)ccc4n3)cc12 [Compound 830, 7-[2-(dimethylamino)ethoxy]-2-(4-ethyl-6-methylpyrazolo[1,5-a]pyrazin-2-yl)-4H-pyrido[1,2-a]pyrimidin-4-one] | < 0.1 | ***** (a fold increase >1.65 is indicated by five stars (*****)) | *** (an EC1.5× between >0.3 μM and ≤1 μM is indicated by three stars (***))
– | CCc1nc(C)cn2nc(-c3cc(=O)n4cc(OCC5CCNCC5)ccc4n3)cc12 [Compound 831, 2-(4-ethyl-6-methylpyrazolo[1,5-a]pyrazin-2-yl)-7-(piperidin-4-ylmethoxy)-4H-pyrido[1,2-a]pyrimidin-4-one] | 0.1 to 0.3 | **** (a fold increase between >1.5 and ≤1.65 is indicated by four stars (****)) | ** (an EC1.5× between >1 μM and ≤3 μM is indicated by two stars (**))
– | CCc1nc(C)cn2nc(-c3cc(=O)n4cc(OCCN5CCCCC5)ccc4n3)cc12 [Compound 832, 2-(4-ethyl-6-methylpyrazolo[1,5-a]pyrazin-2-yl)-7-[2-(piperidin-1-yl)ethoxy]-4H-pyrido[1,2-a]pyrimidin-4-one] | 0.1 to 0.3 | ***** (a fold increase >1.65 is indicated by five stars (*****)) | *** (an EC1.5× between >0.3 μM and ≤1 μM is indicated by three stars (***))
– | CCc1nc(C)cn2nc(-c3cc(=O)n4cc(OCCCN5CCOCC5)ccc4n3)cc12 [Compound 833, 2-(4-ethyl-6-methylpyrazolo[1,5-a]pyrazin-2-yl)-7-[3-(morpholin-4-yl)propoxy]-4H-pyrido[1,2-a]pyrimidin-4-one] | < 0.1 | ***** (a fold increase >1.65 is indicated by five stars (*****)) | ** (an EC1.5× between >1 μM and ≤3 μM is indicated by two stars (**))
– | CCc1nc(C)cn2nc(-c3cc(=O)n4cc(OCCCN(C)C)ccc4n3)cc12 [Compound 834, 7-[3-(dimethylamino)propoxy]-2-(4-ethyl-6-methylpyrazolo[1,5-a]pyrazin-2-yl)-4H-pyrido[1,2-a]pyrimidin-4-one] | < 0.1 | ***** (a fold increase >1.65 is indicated by five stars (*****)) | **** (an EC1.5x≤0.3 μM is indicated by four stars (****))
– | Cc1cn2nc(-c3cc(=O)n4cc(N5C[C@H]6CN(C)C[C@H]6C5)ccc4n3)cc2c(C)n1 [Compound 835, 2-(4,6-dimethylpyrazolo[1,5-a]pyrazin-2-yl)-7-[(3aR,6aS)-5-methylhexahydropyrrolo[3,4-c]pyrrol-2(1H)-yl]-4H-pyrido[1,2-a]pyrimidin-4-one] | < 0.1 | ***** (a fold increase >1.65 is indicated by five stars (*****)) | **** (an EC1.5x≤0.3 μM is indicated by four stars (****))
– | COc1ccc(-c2cc(=O)n3cc(C4=CCNCC4)cnc3n2)cc1OC [Cpd 353, 2-(3,4-dimethoxyphenyl)-7-(1,2,3,6-tetrahydropyridin-4-yl)-4H-pyrimido[1,2-a]pyrimidin-4-one] | 0.1 to 0.3 | ** (a fold increase between >1.2 and ≤1.35 is indicated by two stars (**)) | –
